How the values were obtained:
[1] = test system: experimental dog model of OA; conditions: cited from earlier work
[2] = Plasma ML3000 level after immediate release dosage forms; format: in vivo; conditions: immediate release dosage form, for 8 hours
[3] = test system: experimental osteoarthritis (OA) dog model; assay: Experimental OA dog model (ACL section), macroscopic grading of the knee; format: in vivo; conditions: for reduction of size of cartilage lesions on tibial plateaus vs placebo: P<0.01; for width of osteophytes: mean±SEM, placebo 4.50±0.66, not significant; for osteophytes present (share of condyles): placebo 93%
Method: (§1) Twenty-one adult crossbred dogs (2-3 years old), weighing 20-25 kg each, were used in this study. Surgical sectioning of the anterior cruciate ligament (ACL) of the right knee through a stab wound was performed on all dogs as previously described (5,6). Prior to surgery, the animals were anesthetized intravenously with pentobarbital sodium (25 mg/kg) and intubated. Following surgery, the dogs were kept at a housing farm where they were free to exercise in a large pen.
(§2) The dogs were randomly separated into 3 treatment groups. Group 1 (n=7 dogs) was made up of dogs that received placebo (encapsulated methylcellulose) treatment (OA dogs); Groups 2 and 3 (n=7 dogs per group) received encapsulated ML3000 twice daily for 8 weeks at total doses of 2.5 and 5 mg/kg, respectively, beginning the day following surgery. The medication was administered 7 days/week throughout the duration of the study. All dogs were killed 8 weeks after surgery.
Immediately after killing, the right knee of each dog was dissected, placed on ice, and the synovial fluid aspirated. Each knee was examined by 2 independent, blinded observers (DVJ, JCF) for gross morphologic changes including the presence of osteophyte formation and cartilage lesions as previously described (5,6). The degree of osteophyte formation was graded by measuring the maximal width (mm) of the spur of each femoral condyle. The cartilage changes on the medial and lateral femoral condyles and tibial plateaus were graded separately under a dissecting microscope (Stereozoom; Bausch & Lomb, Rochester, N.Y.).
The area of the articular surface changes was measured and expressed in mm^2. The depth of erosion was graded on a scale of 0-4, as follows: 0=surface appears normal, 1=minimal fibrillation or a slight yellowish discoloration of the surface, 2=erosion extended into superficial or middle layers, 3=erosion extended into deep,layers, and 4=erosion extended to the subchondral bone.

[4] = test system: experimental osteoarthritis (OA) dog model; assay: Experimental OA dog model, histologic grading of cartilage and synovial membrane; format: in vivo
Method: as §1, §2
Histologic evaluation was performed on sagittal sections of cartilage from the lesioned areas of each femoral condyle and tibial plateau as described (7,8). Specimens were dissected, fixed in TissuFix #2 (Laboratoires Gilles Chaput, Montréal, Québec, Canada), and embedded in paraffin for histologic evaluation. Serial sections (5 μm) were stained with Safranin O. The severity of the OA lesions was graded on scale of 0-14, by 2 independent observers (DJ, JF), using the histologic/histochemical scale of Mankin et al (12). This scale evaluates the severity of OA lesions based on the loss of staining with Safranin O (scale 0-4), cellular changes (scale 0-3), invasion of the tidemark by blood vessels (scale 0-1), and structural changes (scale 0-6, where 0=normal cartilage structure and 6=erosion of the cartilage down to the subchondral bone). This scoring system was based on the most severe histologic changes within each cartilage section.
Representative specimens of synovial membrane from the gutters of the medial and lateral knee compartments were also dissected from underlying tissue. The specimens were fixed in TissuFix #2, embedded in paraffin, sectioned (5 μm), and stained with hematoxylin and eosin. Two synovial membrane specimens from each compartment were examined, serial selections were made throughout the specimens, and each one scored separately. The highest score from each specimen was recorded. The average was calculated and considered as a unit for the whole knee. The severity of synovitis was graded on a scale of 0-10 (13) by 2 independent observers (DVJ, JCF) adding the scores for 3 histologic criteria: synovial lining cell hyperplasia (scale 0-2), villous hyperplasia (scale 0-3), and degree of cellular infiltration by mononuclear and polymorphonuclear cells (scale 0-5).

PGE2 = PGE2 measurement in synovial fluid of OA dogs (EIA); format: in vivo, dog; conditions: 2.5 and 5 mg/kg/day; placebo 652.8±149.9 pg/ml
Method: as §2
Synovial fluid taken at the time of sacrifice was centrifuged (14000 g, 15 minutes, 4° C.), and supernatants used for PGE2 determination. The level of PGE2 was determined using a specific enzyme immunoassay (EIA) (Cayman Chemical, Ann Arbor, Mich.).

LTB4 = LTB4 production in synovial explant culture of OA dogs (LPS, EIA); format: in vivo, dog; conditions: both treated groups, explants with 1 μg/ml LPS; placebo 2.48±0.69 pg/mg tissue
Method: as §2
Representative specimens of synovial membrane from all dogs were aseptically dissected from underlying tissue. The specimens were rinsed several times in Dulbecco's Modified Eagle's Medium (DMEM; Gibco-BRL Life Technologies, Burlington, Ontario, Canada), and 150 mg of tissue incubated (duplicate) for 48 hours at 37° C. in a humidified atmosphere of 5% CO2/95% air in DMEM medium in the presence of 1 μg/ml lipopolysaccharide (LPS; Sigma-Aldrich Canada, Oakville, Ontario, Canada). The LTB4 was extracted from cultured synovium explants as follows: membranes were homogenized in EIA buffer (1 M phosphate, pH 7.4, containing 1% BSA, 4 M NaCl, 10 mM EDTA and 0.1% sodium azide) and centrifuged (30000 g, 20 minutes, 4° C.). Supernatants were collected and the levels of LTB4 determined using EIA (Cayman Chemical).

collagenase-1 (MMP-1) = assay: Immunohistochemistry, chondrocyte cell score for collagenase-1 in cartilage of OA dogs; format: in vivo, dog; conditions: condyles and plateaus, both doses, slightly more pronounced at highest dosage
Method: as §2
Cartilage and synovial membrane specimens were processed for immunohistochemical analysis as previously described (7,14). Briefly, specimens were fixed in 4% neutral buffered formalin for 24 hours, then embedded in paraffin. […]
Cartilage. Quantification of the different antigens in cartilage was done using a published method (7,14). […] For each arthritic specimen, it was ensured prior to evaluation that an intact cartilage surface could be detected and used as a marker for validation of morphometric analysis. The total number of chondrocytes and the number of chondrocytes staining positive for the specific antigen were determined. The final results were expressed as the percentage of chondrocytes staining positive for the antigen (cell score) with the maximum score being 100%. […]

interleukin-1β (IL-1β) = assay: Immunohistochemistry, synovial membrane cell score for IL-1β in OA dogs; format: in vivo, dog; conditions: 2.5 and 5 mg/kg/day
Method: as §2
Cartilage and synovial membrane specimens were processed for immunohistochemical analysis as previously described (7,14). Briefly, specimens were fixed in 4% neutral buffered formalin for 24 hours, then embedded in paraffin. Sections (5 μm) of paraffin-embedded specimens were placed on Superfrost Plus slides (Fisher Scientific, Nepean, Ontario, Canada), deparaffinized in toluene, dehydrated in a graded series of ethanol, and preincubated with chondroitinase ABC (0.25 units/ml) in phosphate buffered saline (PBS; Sigma-Aldrich Canada) for 60 minutes at 37° C. […]
Synovial membrane. For synovial membrane analysis, a cell score of the different specimens was determined for each section using our published method (8). […] The percentage of cells staining positive for the specific antigen was evaluated in each field as described above for cartilage. […]

[5] = Clinical observation of dogs during 8 weeks of treatment; format: in vivo; conditions: all dogs of the 3 experimental groups
Method: as §1, §2

[6] = test system: carrageenan-induced paw edema; conditions: rat; cited from earlier work
rat adjuvant arthritis = conditions: cited from earlier work
knee OA patients = conditions: X-ray criteria, 5-year period; cited from earlier work

CC(=O)Oc1ccccc1C(=O)O [ASA, acetylsalicylic acid]
effect on progression of experimental OA [1]: ineffective (10) or even demonstrated to accelerate cartilage damage

CC(C(=O)O)c1ccc2c(c1)[nH]c1ccc(Cl)cc12 (centres unmarked) [Carprofen]
effect on progression of experimental OA [1]: exhibit anti-OA effects

CC1(C)Cc2c(-c3ccccc3)c(-c3ccc(Cl)cc3)c(CC(=O)O)n2C1 [ML3000, [2,2-dimethyl-6-(4-chlorophenyl)-7-phenyl-2,3-dihydro-1H-pyrrolizine-5yl]-acetic acid]
plasma ML3000 concentration maintained ([2]; dose 2.5 mg/kg): above 100 ng/mL
plasma ML3000 concentration maintained ([2]; dose 5 mg/kg): > 200 ng/mL
reduction of size of cartilage lesions on tibial plateaus vs placebo ([3]; 2.5 mg/kg/day, 8 weeks): 45%
reduction of size of cartilage lesions on femoral condyles vs placebo ([3]; 2.5 mg/kg/day, 8 weeks, P<0.05): 39%
width of osteophytes ([3]; 2.5 mg/kg/day, 8 weeks): 3.57±0.56 mm
osteophytes present (share of condyles) ([3]; 2.5 mg/kg/day, 8 weeks): 93%
reduction of size of cartilage lesions on tibial plateaus vs placebo ([3]; 5 mg/kg/day, 8 weeks): 54%
reduction of size of cartilage lesions on femoral condyles vs placebo ([3]; 5 mg/kg/day, 8 weeks, P<0.04): 61%
width of osteophytes ([3]; 5 mg/kg/day, 8 weeks): 3.86±0.66 mm
osteophytes present (share of condyles) ([3]; 5 mg/kg/day, 8 weeks): 86%
macroscopic appearance of synovial membrane vs placebo ([3]; ML3000-treated dogs, 8 weeks): thinner, contained fewer blood vessels, and the discoloration was less intense
grade of cartilage lesions on tibial plateaus ([3]; both doses (2.5 and 5 mg/kg/day), scale 0-4): significantly reduced
grade of cartilage lesions on femoral condyles ([3]; treated dogs (2.5 and 5 mg/kg/day), scale 0-4): did not reach statistical significance
villous hyperplasia of synovial membrane ([4]; 5 mg/kg/day): significant reduction
histologic severity of cartilage lesions on condyles vs placebo, significance ([4]; 5 mg/kg/day, Mankin scale 0-14): statistical significance was obtained
histologic severity of cartilage lesions on tibial plateaus ([4]; 2.5 and 5 mg/kg/day (P<0.002 and P<0.02), Mankin scale): statistically significant decrease
histologic severity of cartilage lesions on condyles vs placebo ([4]; ML3000-treated dogs, Mankin scale 0-14): less severe
level of PGE2 in synovial fluid (PGE2): markedly decreased
LTB4 levels in cultured synovium (LTB4): statistically significant reduction
chondrocyte cell score for collagenase-1 (collagenase-1 (MMP-1)): significant decrease
number of synovial lining cells staining positive for IL-1β (interleukin-1β (IL-1β)): dose-dependent and significant decrease
body weight during the study period [5]: no change in the body weight
anti-inflammatory action [6]: potent anti-inflammatory action
anti-inflammatory action (rat adjuvant arthritis): potent anti-inflammatory action

O=C(O)Cc1ccccc1Nc1c(Cl)cccc1Cl [diclofenac]
effect on progression of experimental OA [1]: ineffective (10) or even demonstrated to accelerate cartilage damage

COc1ccc2c(c1)c(CC(=O)O)c(C)n2C(=O)c1ccc(Cl)cc1 [indomethacin]
effect on progression of cartilage damage (knee OA patients): even accelerated its progression

CC(C(=O)O)c1ccc(C(=O)c2ccccc2)s1 (centres unmarked) [tiaprofenic acid]
effect on progression of cartilage damage (knee OA patients): could not retard the progression of cartilage damage

Source: patent US7425573B2, “Use of annellated pyrrole compounds in the treatment of articular cartilage or subchondral bone degeneration” (priority 2001, dated 2008)
